Source: PubChem BioAssay (NCI)
Where “and” joins values, the source holds several entries; their conditions need not be identical. Equal entries are not always repeated.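 Step 1: Grow cells in 96-well plates. Step 2: Expose to compound for 48 hours at 5 concentrations. Step 3: Interpolate endpoints linearly; if unreached, use highest concentration. GI50 is the concentration that inhibits growth by half. At the TGI there is no net growth.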

How the values were obtained:
Test in all cases: growth of human tumour cells (NCI), 48 h
NCI-H23 lung = tested on: NCI-H23 lung
SNB-19 CNS = tested on: SNB-19 CNS
SNB-75 CNS = tested on: SNB-75 CNS
MDA-MB-435 = tested on: MDA-MB-435
A498 renal = tested on: A498 renal
OVCAR-8 ovarian = tested on: OVCAR-8 ovarian
SF-539 CNS = tested on: SF-539 CNS
HCC-2998 colon = tested on: HCC-2998 colon
HS 578T breast = tested on: HS 578T breast
CAKI-1 renal = tested on: CAKI-1 renal

| SMILES | GI50 (NCI-H23 lung) [µM] | TGI (NCI-H23 lung) [µM] | GI50 (SNB-19 CNS) [µM] | TGI (SNB-19 CNS) [µM] | GI50 (SNB-75 CNS) [µM] | TGI (SNB-75 CNS) | GI50 (MDA-MB-435) [µM] | TGI (MDA-MB-435) [µM] | GI50 (A498 renal) [µM] | TGI (A498 renal) [µM] | GI50 (OVCAR-8 ovarian) [µM] | TGI (OVCAR-8 ovarian) | GI50 (SF-539 CNS) [µM] | TGI (SF-539 CNS) [µM] | GI50 (HCC-2998 colon) [µM] | TGI (HCC-2998 colon) | GI50 (HS 578T breast) [µM] | TGI (HS 578T breast) [µM] | TGI (CAKI-1 renal) | GI50 (CAKI-1 renal) [µM] |
| --- | --- | --- | --- | --- | --- | --- | --- | --- | --- | --- | --- | --- | --- | --- | --- | --- | --- | --- | --- | --- |
| COc1cc(/C=C/C(=O)N2CCC=CC2=O)cc(OC)c1OC | 1.81 | 4.03 | 5.55 | 20.6 | 36.6 | > 100 µM | 2.21 | 6.05 | 14.9 | 29.4 | 2.86 | 8.17 µM | 1.82 | 4.47 | 1.77 | 3.56 µM | 5.36 | 43.6 | – | – |
| CC1CCC(=O)C(C(O)CC2CC(=O)N(c3ccccc3)C(=O)C2)C1 (stereo not drawn) | – | > 100 | – | > 100 | – | > 100 µM | – | – | – | > 100 | – | > 100 µM | – | > 100 | – | > 100 µM | – | – | > 100 µM | – |
| Cc1cc(=O)n(-c2c(C)cccc2Cl)c(/C=C(\O)c2ccncc2)n1 | – | > 100 | – | > 100 | – | > 100 µM | – | – | – | > 100 | – | > 100 µM | – | > 100 | – | > 100 µM | – | – | > 100 µM | – |
| CCCCCCCCCC(CCCC(O)CC(=O)O)OC1OC(COC2OC(C)C(OC(C)=O)C(O)C2O)C(O)C(O)C1OC1OC(CO)C(O)C(O)C1OC1OC(C)C(OC(=O)CC(C)C)C(O)C1O (stereo not drawn) | > 35 | > 35 | > 35 | > 35 | > 35 | > 35 µM | > 35 | > 35 | – | – | > 35 | > 35 µM | > 35 | > 35 | > 35 | > 35 µM | > 35 | > 35 | > 35 µM | > 35 |
| COc1ccc2c(c1)[n+](=O)c(C(=O)C/C(=N/NC(=O)C[N+](C)(C)C)C(=O)Nc1cccc(C)c1C)c(C)n2O | – | > 100 | – | > 100 | – | > 100 µM | – | – | – | > 100 | – | > 100 µM | – | > 100 | – | > 100 µM | – | – | > 100 µM | – |
| CN(NC1OC(CO)C(O)C(O)C1O)c1ccccc1 (stereo not drawn) | – | > 100 | – | > 100 | – | – | – | – | – | – | – | > 100 µM | – | – | – | > 100 µM | – | – | > 100 µM | – |
| CN(C)CCn1cnc2ncccc2c1=O | – | > 100 | – | > 100 | – | > 100 µM | – | – | – | – | – | > 100 µM | – | > 100 | – | > 100 µM | – | – | > 100 µM | – |
| ClCc1ccc(Cn2cnc3c(Cl)ncnc32)cc1 | 6.99 | 17.3 | 16.9 | 43.3 | > 42 | > 67 µM | 13 | 23.3 | 29.4 | 50.4 | 16.5 | 44.2 µM | 10.9 | 29.2 | – | – | 13.6 | 29.1 | 8.78 µM | 2.26 |
| O=C(O)c1c(Cl)c(Cl)c(Cl)c(Cl)c1C(=O)Nc1ccc2cn[nH]c2c1 | – | > 100 | – | > 100 | – | > 100 µM | – | > 100 | – | > 100 | – | > 100 µM | – | > 100 | – | – | – | > 100 | > 100 µM | – |
| CCCCCCCCCCCCCCCCc1c(C(=O)OC)nc(NN)[nH]c1=O | – | > 50 | – | > 50 | – | > 50 µM | – | – | – | > 50 | – | > 50 µM | – | > 50 | – | > 50 µM | – | – | > 50 µM | – |
| CC(=O)Nc1ccc(/C=C2\N=C(c3ccccc3)OC2=O)cc1 | – | > 100 | – | > 100 | – | > 100 µM | – | – | – | – | – | – | – | – | – | > 100 µM | – | – | – | – |
| O=C(N/C(=C\c1ccccc1Cl)c1nc2ccccc2[nH]1)c1ccccc1 | – | > 100 | – | > 100 | – | – | – | – | – | – | – | > 100 µM | – | > 100 | – | 91 µM | – | – | > 100 µM | – |
| CCOC(=O)C(NO)C(Sc1ccccc1)c1ccc(OC)cc1 (stereo not drawn) | – | > 100 | – | > 100 | – | > 100 µM | – | – | – | – | – | > 100 µM | – | > 100 | – | > 100 µM | – | – | – | – |
| CCOc1ccc(OCC)c([P+](c2ccccc2)(c2ccccc2)c2ccccc2)c1 | – | 1.17 | – | 12.7 | – | 10.6 µM | – | – | – | 4.42 | – | 12.5 µM | – | 8.77 | – | 11 µM | – | – | 6.1 µM | – |
| CN(C)C(=O)NC(=S)N(C)C | – | > 100 | – | > 100 | – | > 100 µM | – | – | – | > 100 | – | > 100 µM | – | > 100 | – | > 100 µM | – | – | > 100 µM | – |
| CC(=O)OC(C)(C)/C=C/C(=O)[C@](C)(O)[C@H]1[C@H](O)C[C@@]2(C)[C@@H]3CC=C4[C@@H](C=C(O)C(=O)C4(C)C)[C@]3(C)C(=O)C[C@]12C | – | – | – | – | – | 42.7 nM [middle of 4 runs] | 0.0404 | 0.194 | – | – | – | 5.35 µM and 2.14 µM and 3.28 µM | – | – | – | 1.56 µM and 0.542 µM and 0.962 µM | – | – | 44 nM [middle of 4 runs] | – |
| CC1=C(C(=O)NCc2ccccc2)C(c2ccccc2C)C(C(=O)NCc2ccccc2)=C(C)N1 | – | > 93.6 | – | > 100 | – | > 94.1 µM | – | – | – | > 100 | – | 32.8 µM | – | 48.8 | – | > 60 µM | – | – | > 100 µM | – |
| C/C(=N\n1c(O)c(C#N)cc(C#N)c1=O)c1ccncc1 | > 100 | > 100 | > 100 | > 100 | – | – | > 100 | > 100 | – | – | > 100 | > 100 µM | – | – | > 100 | > 100 µM | > 100 | > 100 | > 100 µM | > 100 |
| C[C@H](CS)C(=O)N1c2ccccc2C[C@H]1C(=O)O | – | > 100 | – | > 100 | – | > 100 µM | – | – | – | > 100 | – | > 100 µM | – | > 100 | – | > 100 µM | – | > 100 | > 100 µM | – |
| N#Cc1ccccc1C#C/C=C\C#CC#C/C=C\C#Cc1ccccc1C#N | 3.14 | 19.7 | 7.27 | > 100 | – | – | 8.49 | 26.4 | – | – | 47.6 | > 100 µM | 22.6 | > 100 | – | – | 5.38 | 78.8 | 73.4 µM | 20.1 |
| CCN(CC)c1ccc2nc3c4ccccc4c(=O)cc-3n(-c3ccccc3)c2c1 | 2.18 | 9.09 | 3.32 | > 100 | 2.34 | 12.7 µM | 0.899 | 3.46 | 0.653 | 4.59 | 1.75 | 5.11 µM | 2.49 | 6.8 | – | – | 2.37 | 7.24 | 4.52 µM | 1.32 |
